pIC50: −log10 of the molar value. Values after ≈ are worked out from the molar mass of the structure shown.
Key:
Toll-like receptor 7 = molecular target: T1, Toll-like receptor 7 (Homo sapiens, UniProt Q9NYK1); assay: Antagonist activity at human TLR7 expressed in HEK-blue-HTLR7 cells assessed as inhibition of CL264-induced NFkappaB activation measured after overnight incubation by SEAP-based spectrophotometry assay
T1 sequence (Q9NYK1 whole entry): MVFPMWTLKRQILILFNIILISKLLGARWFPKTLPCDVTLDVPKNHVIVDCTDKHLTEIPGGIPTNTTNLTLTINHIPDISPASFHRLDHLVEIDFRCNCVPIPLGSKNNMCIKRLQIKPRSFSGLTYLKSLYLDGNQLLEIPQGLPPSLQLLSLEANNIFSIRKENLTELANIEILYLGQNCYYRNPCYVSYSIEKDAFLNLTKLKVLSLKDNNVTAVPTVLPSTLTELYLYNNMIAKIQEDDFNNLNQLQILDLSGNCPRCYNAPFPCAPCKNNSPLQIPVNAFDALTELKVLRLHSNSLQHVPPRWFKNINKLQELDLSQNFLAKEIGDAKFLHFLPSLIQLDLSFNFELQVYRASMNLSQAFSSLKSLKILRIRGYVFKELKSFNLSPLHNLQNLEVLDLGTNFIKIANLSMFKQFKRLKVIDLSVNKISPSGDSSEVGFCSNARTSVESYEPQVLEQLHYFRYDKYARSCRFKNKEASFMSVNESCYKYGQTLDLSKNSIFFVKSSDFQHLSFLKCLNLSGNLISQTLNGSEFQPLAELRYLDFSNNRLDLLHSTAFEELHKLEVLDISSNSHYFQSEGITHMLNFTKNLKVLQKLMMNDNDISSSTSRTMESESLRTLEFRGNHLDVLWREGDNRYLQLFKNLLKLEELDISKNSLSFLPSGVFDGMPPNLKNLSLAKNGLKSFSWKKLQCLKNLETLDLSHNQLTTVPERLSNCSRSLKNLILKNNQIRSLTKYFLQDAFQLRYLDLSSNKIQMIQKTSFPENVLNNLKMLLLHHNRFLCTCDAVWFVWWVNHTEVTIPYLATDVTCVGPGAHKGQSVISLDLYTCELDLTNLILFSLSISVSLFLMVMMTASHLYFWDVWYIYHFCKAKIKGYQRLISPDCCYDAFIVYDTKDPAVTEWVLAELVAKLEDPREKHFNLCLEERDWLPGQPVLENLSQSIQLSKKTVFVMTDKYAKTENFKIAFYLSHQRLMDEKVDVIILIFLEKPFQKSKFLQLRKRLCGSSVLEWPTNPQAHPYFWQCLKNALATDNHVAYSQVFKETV

[1] = metabolic stability in human liver microsomes assessed as hepatic extraction ratio incubated for 60 mins by LC-MS/MS analysis
[2] = Stability in mouse plasma measured after 2 hrs by LC-MS/MS analysis
[3] = Metabolic stability in human liver microsomes assessed as intrinsic clearance incubated for 60 mins by LC-MS/MS analysis
[4] = Metabolic stability in human liver microsomes assessed as compound remaining incubated for 60 mins by LC-MS/MS analysis
[5] = Stability in human plasma measured after 2 hrs by LC-MS/MS analysis
[6] = Metabolic stability in mouse liver microsomes assessed as hepatic extraction ratio incubated for 60 mins by LC-MS/MS analysis
Toll-like receptor 8 = molecular target: T2, Toll-like receptor 8 (Homo sapiens, UniProt Q9NR97); assay: Antagonist activity at human TLR8 expressed in […] cells assessed as inhibition of CL075-induced NFkappaB activation measured after overnight incubation by SEAP-based spectrophotometry assay; format: cell-based, HEK293
T2 sequence (Q9NR97 whole entry): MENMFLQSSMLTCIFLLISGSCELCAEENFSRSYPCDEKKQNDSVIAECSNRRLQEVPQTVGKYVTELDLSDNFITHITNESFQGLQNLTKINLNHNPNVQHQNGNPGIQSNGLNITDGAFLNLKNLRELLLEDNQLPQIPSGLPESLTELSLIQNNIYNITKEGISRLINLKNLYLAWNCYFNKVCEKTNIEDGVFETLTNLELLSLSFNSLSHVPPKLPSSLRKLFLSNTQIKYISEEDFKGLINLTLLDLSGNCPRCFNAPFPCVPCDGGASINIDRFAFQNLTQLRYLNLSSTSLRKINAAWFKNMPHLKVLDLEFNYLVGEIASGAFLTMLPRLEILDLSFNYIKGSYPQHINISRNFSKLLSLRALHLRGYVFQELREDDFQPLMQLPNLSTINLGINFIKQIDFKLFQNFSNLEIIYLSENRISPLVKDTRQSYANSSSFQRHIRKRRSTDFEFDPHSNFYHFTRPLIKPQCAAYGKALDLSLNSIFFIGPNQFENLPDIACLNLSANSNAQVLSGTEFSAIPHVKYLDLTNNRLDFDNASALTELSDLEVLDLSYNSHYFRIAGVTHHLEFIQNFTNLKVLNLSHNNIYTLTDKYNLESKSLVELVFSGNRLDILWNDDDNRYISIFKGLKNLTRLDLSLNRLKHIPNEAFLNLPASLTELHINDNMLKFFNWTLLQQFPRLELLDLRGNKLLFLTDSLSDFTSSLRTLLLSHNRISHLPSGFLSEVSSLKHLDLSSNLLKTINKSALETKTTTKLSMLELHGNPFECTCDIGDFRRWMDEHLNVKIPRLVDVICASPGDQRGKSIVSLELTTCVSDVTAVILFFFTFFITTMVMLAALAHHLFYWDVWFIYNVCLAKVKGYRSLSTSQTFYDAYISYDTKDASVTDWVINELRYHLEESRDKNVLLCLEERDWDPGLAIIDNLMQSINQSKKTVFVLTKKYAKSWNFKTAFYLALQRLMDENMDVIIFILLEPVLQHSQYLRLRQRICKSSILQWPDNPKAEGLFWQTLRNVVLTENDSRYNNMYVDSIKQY

[7] = Metabolic stability in human liver microsomes assessed as half life incubated for 60 mins by LC-MS/MS analysis
[8] = Apparent permeability across apical to basolateral side in human Caco2 cells at 10 uM measured after 10 mins by LC-MS/MS analysis; conditions: Caco-2
[9] = Metabolic stability in mouse liver microsomes assessed as intrinsic clearance incubated for 60 mins by LC-MS/MS analysis
physchem = conditions: buffer, pH 7.4
Description: Aqueous solubility of compound at pH 7.4 measured after 18 hrs by UV-spectrometry

[10] = Efflux ratio of apparent permeability across apical to basolateral over basolateral to apical side in human Caco2 cells measured after 10 mins by LC-MS/MS analysis; conditions: Caco-2
[11] = Apparent permeability across basolateral to apical side in human Caco2 cells at 10 uM measured after 10 mins by LC-MS/MS analysis; conditions: Caco-2

pIC50 (Toll-like receptor 7): 4.87
hepatic extraction ratio at 1 h [1]: 0.642
remaining at 2 h [2]: 20%
microsomal CLint at 1 h [3]: 38.8 µL/min/mg
remaining at 1 h [4]: 2.9%
remaining at 2 h [5]: 75%
hepatic extraction ratio at 1 h [6]: 0.385
pIC50 (Toll-like receptor 8): < 4.52
half-life at 1 h [7]: 17.9 min
Papp A→B at 10 min, 10 µM [8]: 32.7 ×10⁻⁶ cm/s
microsomal CLint at 1 h [9]: 23.1 µL/min/mg
solubility at 18 h (physchem): 28 µg/mL (≈ 55.3 µM)
efflux ratio at 10 min [10]: 1.9
Papp B→A at 10 min, 10 µM [11]: 62 ×10⁻⁶ cm/s
Structure (SMILES): Fc1ccc(CNc2nc(N3CCN(C4CCCC4)CC3)c3ncn(CCCN4CCCC4)c3n2)cc1
